# From patent publication US9580432B2, “Fused pyrimidine compound or salt thereof” (TAIHO PHARMACEUTICAL CO., LTD., priority 2013, dated 2017)
# Experiments:
# [1] = test system: A431 cells / TMD8 cells; test: Proliferation inhibitory activity against cell lines expressing BTK and EGFR (in vitro), comparison of selectivity; type: cell-based, human; conditions: ratio from GI50 (nM), 3 days culture, CELLTITER GLO
# Excerpt: TMD8 cells, which are of a diffuse large B-cell lymphoma cell line expressing BTK, were suspended in RPMI1640 medium (manufactured by Life Technologies Corp.) containing 10% fetal bovine serum. A431 cells, which are of an EGFR-overexpressing, highly activated human epidermoid carcinoma cell line, were suspended in DMEM, high glucose medium (manufactured by Life Technologies Corp.) containing 10% fetal bovine serum. The cell suspensions were inoculated into each well of 384-well flat-bottomed microplates, and the cells were cultured for 1 day at 37° C. in an incubator containing 5% carbon dioxide gas. […] A DMSO solution of the test compounds was diluted with the medium used in the suspension of the each cells, and this was added to each of the wells of the cell culture plates such that the final concentration of DMSO would be 0.2%. The cells were further cultured for 3 days at 37° C. in an incubator containing 5% carbon dioxide gas. […] Proliferation inhibition ratio (%)=(C−T)/(C−C0)×100
# T: Luminescence intensity of a well in which the test compound was added
# C: Luminescence intensity of a well in which the test compound was not added
# C0: Luminescence intensity of a well measured before the addition of the test compound
# When a comparison is made between the cell proliferation inhibitory activity against A431 cells that depends on the EGFR proliferation signaling and the cell proliferation inhibitory activity against TMD8 cells that depends on the BTK proliferation signaling, the influence of the respective kinases at a cellular level is able to be evaluated. That is, when the “A431 cell proliferation inhibition ratio/TMD8 cell proliferation inhibition ratio” is calculated, it is contemplated that as the value of the ratio is larger, the selectivity to BTK over EGFR in the cells is higher.
# [2] = biological target: purified recombinant human BTK protein (Homo sapiens (Human), UniProt Q06187); test: Measurement of BTK inhibitory activity (in vitro); type: biochemical; conditions: FL-PEPTIDE 2 substrate 1 μM, ATP 45 μM, 40 minutes at 25° C.
# Sequence of purified recombinant human BTK protein (Q06187 whole entry): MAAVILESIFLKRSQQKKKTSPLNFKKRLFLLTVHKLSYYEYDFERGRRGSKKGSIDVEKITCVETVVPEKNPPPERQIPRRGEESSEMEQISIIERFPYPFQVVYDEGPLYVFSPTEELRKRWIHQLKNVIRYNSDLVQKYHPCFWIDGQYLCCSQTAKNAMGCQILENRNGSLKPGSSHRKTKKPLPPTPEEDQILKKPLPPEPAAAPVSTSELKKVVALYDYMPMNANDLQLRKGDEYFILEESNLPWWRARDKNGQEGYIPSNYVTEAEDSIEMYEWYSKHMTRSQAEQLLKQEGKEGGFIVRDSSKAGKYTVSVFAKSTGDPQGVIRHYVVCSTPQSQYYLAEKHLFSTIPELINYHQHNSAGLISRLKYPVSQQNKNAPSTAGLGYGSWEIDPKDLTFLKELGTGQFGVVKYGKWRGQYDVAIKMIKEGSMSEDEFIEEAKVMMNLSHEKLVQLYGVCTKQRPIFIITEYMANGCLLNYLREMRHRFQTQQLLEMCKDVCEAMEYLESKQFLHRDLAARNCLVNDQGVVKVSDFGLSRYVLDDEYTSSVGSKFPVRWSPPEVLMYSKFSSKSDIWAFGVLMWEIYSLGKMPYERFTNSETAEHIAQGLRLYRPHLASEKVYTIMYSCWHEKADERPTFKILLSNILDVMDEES
# Excerpt: With regard to the setting of the conditions for a method for measuring the inhibitory activity of a compound against BTK kinase activity in vitro, it is described in the consumable reagent supplies price list for LabChip (registered trademark) series of PerkinElmer, Inc. that FL-PEPTIDE 2 corresponds to a substrate peptide for the measurement of BTK kinase activity. Therefore, FL-PEPTIDE 2 was used as a substrate. The purified recombinant human BTK protein used in the test was purchased from Carna Biosciences, Inc.
# With regard to the measurement of the inhibitory activity of the compounds, firstly, the compounds of the present invention were diluted stepwise with dimethyl sulfoxide (DMSO). Subsequently, BTK protein, a substrate peptide (final concentration was 1 μM), magnesium chloride (final concentration was 10 mM), ATP (final concentration was 45 μM), and a DMSO solution of the compounds of the present invention (final concentration of DMSO was 5%) were added to a buffer solution for kinase reaction (20 mM HEPES (pH 7.5), 2 mM dithiotheitol, 0.01% Triton X-100), and after the solution was incubated for 40 minutes at 25° C., a kinase reaction was carried out. The reaction was terminated by adding EDTA thereto in order to obtain a final concentration of 30 mM. Finally, a substrate peptide that was not phosphorylated (S) and a phosphorylated peptide (P) were separated and detected by microchannel capillary electrophoresis using a LabChip EZ Reader II (PerkinElmer, Inc.).
# [3] = test system: purified recombinant human EGFR protein / BTK; test: BTK inhibition selectivity compared with EGFR kinase inhibitory activity (in vitro); type: biochemical; conditions: EGFR assay ATP 1.5 μM
# Experimental: 1) Measurement of BTK Inhibitory Activity
# 2) Measurement of EGFR Inhibitory Activity
# Therefore, a biotinated peptide (biotin-[…]) was produced by referring to the amino acid sequence of the peptide. The purified recombinant human EGFR protein used in the test was purchased from Carna Biosciences, Inc.
# With regard to the measurement of the inhibitory activity of the compounds, firstly, the compounds of the present invention were diluted stepwise with dimethyl sulfoxide (DMSO). […] The reaction was terminated by adding EDTA thereto in order to obtain a final concentration of 24 mM. Subsequently, a detection liquid containing Eu-labeled anti-phosphorylated tyrosine antibody PT66 (PerkinElmer, Inc.) and […] APC-SA (PerkinElmer, Inc.) was added thereto, and the system was left to stand for 2 hours or longer at room temperature.
# 3) BTK Inhibition Selectivity
Compound,A431 cell proliferation inhibition ratio/TMD8 cell proliferation inhibitio ratio [1],IC50 [2],EGFR inhibitory activity IC50 value (nM)/BTK inhibitory activity IC50 value (nM) [3]
"C=CC(=O)N1CC[C@@H](n2nc(C(=O)Nc3nc4cc(-c5cccs5)ccc4o3)c3c(N)ncnc32)C1 [Example 28, (R)-1-(1-acryloylpyrrolidin-3-yl)-4-amino-N-(5-(thiophen-2-yl)benzo[d]oxazol-2-yl)-1H-pyrazolo[3,4-d]pyrimidine-3-carboxamide]",2040.3,0.559 nM,
"C=CC(=O)N1CC[C@@H](n2nc(C(=O)Nc3nc4cc(Cl)ccc4o3)c3c(N)ncnc32)C1 [Example 24, (R)-1-(1-acryloylpyrrolidin-3-yl)-4-amino-N-(5-chlorobenzo[d]oxazol-2-yl)-1H-pyrazolo[3,4-d]pyrimidine-3-carboxamide]",3266.5,0.591 nM,
"(E)-4-amino-N-(5-chlorobenzo[d]oxazol-2-yl)-7-(1-(4-(dimethylamino)but-2-enoyl)azetidin-3-yl) 7H-pyrrolo[2,3-d]pyrimidine-5-carboxamide [Example 47]",,7.34 nM,20.4
"C=CC(=O)N1CCC[C@@H](n2nc(C(=O)Nc3nc4cc(Cl)ccc4o3)c3c(N)ncnc32)C1 [Example 1, (R)-1-(1-acryloylpiperidin-3-yl)-4-amino-N-(5-chlorobenzo[d]oxazol-2-yl)-1H-pyrazolo[3,4-d]pyrimidine-3-carboxamide]",1062.9,0.415 nM,
"CN(C)C/C=C/C(=O)N1CC[C@@H](n2cc(C(=O)Nc3nc4cc(-c5ccccc5)ccc4o3)c3c(N)ncnc32)C1 [Example 56, (R,E)-4-amino-N-(5-phenylbenzo[d]oxazol-2-yl)-7-(1-(4-(dimethylamino)but-2-enoyl)pyrrolidin-3-yl) 7H-pyrrolo[2,3-d]pyrimidine-5-carboxamide]",,1.34 nM,17.6
"Nc1ncnc2c1c(C(=O)Nc1nc3cc(-c4ccccc4)ccc3o1)cn2[C@@H]1CCN(C(=O)/C=C/CN2CCCCC2)C1 [Example 61, (R,E)-4-amino-N-(5-phenylbenzo[d]oxazol-2-yl)-7-(1-(4-(piperidin-1-yl)but-2-enoyl)pyrrolidin-3-yl) 7H-pyrrolo[2,3-d]pyrimidine-5-carboxamide]",,2.34 nM,67.5
"C=CC(=O)N1CCC[C@@H](n2nc(C(=O)Nc3nc4cc(Br)ccc4o3)c3c(N)ncnc32)C1 [Example 2, (R)-1-(1-acryloylpiperidin-3-yl)-4-amino-N-(5-bromobenzo[d]oxazol-2-yl)-1H-pyrazolo[3,4-d]pyrimidine-3-carboxamide]",>1033.6,0.464 nM,
"C=CC(=O)N1CC[C@@H](n2cc(C(=O)Nc3nc4cc(Cl)ccc4o3)c3c(N)ncnc32)C1 [Example 48, (R)-7-(1-acryloylpyrrolidin-3-yl)-4-amino-N-(5-chlorobenzo[d]oxazol-2-yl)-7H-pyrrolo[2,3-d]pyrimidine-5-carboxamide]",2496.4,0.836 nM,
"CN(C)C/C=C/C(=O)N1CC[C@H](n2nc(C(=O)Nc3nc4ccccc4o3)c3c(N)ncnc32)C1 [Example 73, (S,E)-4-amino-N-(benzo[d]oxazol-2-yl)-1-(1-(4-(dimethylamino)but-2-enoyl)pyrrolidin-3-yl)-1H-pyrazolo[3,4-d]pyrimidine-3-carboxamide]",,259 nM,11.2
"Nc1ncnc2c1c(C(=O)Nc1nc3cc(Cl)ccc3o1)nn2[C@@H]1CCN(C(=O)/C=C/CN2CCCC2)C1 [Example 36, (R,E)-4-amino-N-(5-chlorobenzo[d]oxazol-2-yl)-1-(1-(4-(pyrrolidin-1-yl)but-2-enoyl)pyrrolidin-3-yl)-1H-pyrazolo[3,4-d]pyrimidine-3-carboxamide]",,0.867 nM,59.8
"Nc1ncnc2c1c(C(=O)Nc1nc3cc(-c4ccccc4)ccc3o1)cn2[C@@H]1CCN(C(=O)/C=C/CN2CCCC2)C1 [Example 60, (R,E)-4-amino-N-(5-phenylbenzo[d]oxazol-2-yl)-7-(1-(4-(pyrrolidin-1-yl)but-2-enoyl)pyrrolidin-3-yl) 7H-pyrrolo[2,3-d]pyrimidine-5-carboxamide]",,1.88 nM,32.4
"C=C(C)C(=O)N1CCC[C@@H](n2nc(C(=O)Nc3nc4cc(Cl)ccc4o3)c3c(N)ncnc32)C1 [Example 4, (R)-4-amino-N-(5-chlorobenzo[d]oxazol-2-yl)-1-(1-methacryloylpiperidin-3-yl)-1H-pyrazolo[3,4-d]pyrimidine-3-carboxamide]",,0.888 nM,929.2
"C=CC(=O)N1CCC(Cn2nc(C(=O)Nc3nc4ccccc4o3)c3c(N)ncnc32)C1 (stereo not shown) [Example 66, 1-((1-acryloylpyrrolidin-3-yl)methyl)-4-amino-N-(benzo[d]oxazol-2-yl)-1H-pyrazolo[3,4-d]pyrimidine-3-carboxamide]",>1205.7,17 nM,
"C=CC(=O)N1CC[C@@H](n2nc(C(=O)Nc3nc4cc(C)ccc4o3)c3c(N)ncnc32)C1 [Example 29, (R)-1-(1-acryloylpyrrolidin-3-yl)-4-amino-N-(5-methylbenzo[d]oxazol-2-yl)-1H-pyrazolo[3,4-d]pyrimidine-3-carboxamide]",1243.4,0.485 nM,
"C=CC(=O)N1CC(n2cc(C(=O)Nc3nc4cc(Cl)ccc4o3)c3c(N)ncnc32)C1 [Example 46, 7-(1-acryloylazetidin-3-yl)-4-amino-N-(5-chlorobenzo[d]oxazol-2-yl)-7H-pyrrolo[2,3-d]pyrimidine-5-carboxamide]",7662.2,3.27 nM,
"C=CC(=O)N1CCC[C@@H](n2nc(C(=O)Nc3nc4c(C)cccc4o3)c3c(N)ncnc32)C1 [Example 10, (R)-1-(1-acryloylpiperidin-3-yl)-4-amino-N-(4-methylbenzo[d]oxazol-2-yl)-1H-pyrazolo[3,4-d]pyrimidine-3-carboxamide]",5860.5,2.38 nM,
"C=CC(=O)N1CC(n2nc(C(=O)Nc3nc4cc(F)ccc4o3)c3c(N)ncnc32)C1 [Example 79, 1-(1-acryloylazetidin-3-yl)-4-amino-N-(5-fluorobenzo[d]oxazol-2-yl)-1H-pyrazolo[3,4-d]pyrimidine-3-carboxamide]",,,20.6
"C=CC(=O)NCCCn1nc(C(=O)Nc2nc3ccccc3o2)c2c(N)ncnc21 [Example 85, 1-(3-acrylamidopropyl)-4-amino-N-(benzo[d]oxazol-2-yl)-1H-pyrazolo[3,4-d]pyrimidine-3-carboxamide]",,,11.0
